Assay results published in article PMC11232401, “Characterization of antimalarial activity of artemisinin-based hybrid drugs” (Antimicrobial Agents and Chemotherapy, 2024).

Experiment: Quantification of hybrid 1 in uRBC-derived supernatants by HPLC and fluorescence
Type: in vitro ADME, human
Procedure: Each well of 96-well plates was filled with 125 µL drug (1000 nM) and 125 µL uninfected red blood cells (uRBC), which were mixed to obtain a final drug concentration of 500 nM and 2.5% or 1.0% hematocrit. The plates were incubated at 37°C in the standard gas mixture. After each time point (10 min, 6 h, and 24 h), supernatants were carefully harvested and stored at −80°C until use. Untreated uRBC incubated at the same times were used as negative controls, and DHA and AQ were employed as standard drugs. Next, supernatants were diluted in a complete medium in six different dilutions and were aliquoted in new plates. The antimalarial activity of these supernatants and freshly dissolved drugs was determined in an asynchronous parasite culture of P. falciparum (3D7, D10, and W2 strains) for 72 h using the same method described above, and parasite viability was assessed by the pLDH ([38]) and SYBR Green I ([41]) methods. […] Decay in drug concentration was estimated by using the normalized slope values calculated from linear regression fits using the slope values of a standard curve as reference. […]
To test the association between the antimalarial activity of hybrid 1 supernatants and chemical stability, the concentration of hybrid 1 in these supernatants was quantified by high-performance liquid chromatography (HPLC) and fluorescence in a microplate reader. The concentration of hybrid 1 remained constant under incubation with PBS over the analyzed time (Fig. 3E; Fig. S1). […] Moreover, we defined the slopes calculated from linear regression fits to accurately reflect the effective decay in drug concentration because peroxides could covalently bind to proteins present in the supernatant. […]
Figure S1: Quantification of hybrid LH70 (1) by fluorescence and HPLC in the uRBC-derived supernatants. […] The drug was quantified in the supernatant of the cell culture after the second and third steps of medium replacement and washing out. […] RFU = relative fluorescence units.

## COCCOCCOCCOCCn1c(-c2ccc(-n3cc(-c4ccc(OC5OC6OC7(C)CCC8C(C)CCC(C5C)C68OO7)cc4)nn3)cc2)nc2ccccc21 (stereo not drawn) [Hybrid 1]
uRBC hematocrit 2.5%, start 500 nM, HPLC
  concentration of hybrid 1 in supernatant at 24 h: 256 nM
uRBC supernatants, slopes of linear regression fits, HPLC
  Maximum rate of reduction of drug concentration between 10 min and 24 h, HPLC: 56.4%
uRBC supernatants, slopes of linear regression fits, fluorescence
  Maximum rate of reduction of drug concentration between 10 min and 24 h, fluorescence microplate reader: 65.4%
